Data taken from PMC8067507, “Aryl Urea Based Scaffolds for Multitarget Drug Discovery in Anticancer Immunotherapies” (Pharmaceuticals, 2021).

Tests used:
[1] = tested on: HMEC-1 (human microvascular endothelial cells); assay: Cell proliferation assay (MTT); format: cell-based; details: HMEC-1, 48 h, 2 days incubation, average ± SD of three experiments
From the text: (§1) The ability of Ureas 13–33 to inhibit cell proliferation was established by means of their IC50 values towards the human tumor cell lines HT-29 (colon adenocarcinoma), MCF-7 (breast adenocarcinoma), HeLa (epithelioid cervix carcinoma) and A549 (pulmonary adenocarcinoma), as well as towards the endothelial cell line HMEC-1 (human microvascular endothelial cells) and the non-tumor cell line HEK-293 (human embryonic kidney cells).
(§2) HT-29, MCF-7, HeLa, A549 and HEK-293 cell lines were maintained in Dulbecco’s modified Eagle’s medium (DMEM) containing glucose (1 g/L), glutamine (2 mM), penicillin (50 μg/mL), streptomycin (50 μg/mL), and amphotericin B (1.25 μg/mL), supplemented with 10% FBS. HMEC-1 cell line was maintained in Dulbecco’s modified Eagle’s medium (DMEM)/low glucose containing glutamine (2 mM), penicillin (50 μg/mL), streptomycin (50 μg/mL), and amphotericin B (1.25 μg/mL), supplemented with 10% FBS. For the development of tube formation assays in Matrigel, HMEC-1 cells were cultured in EGM-2MV Medium supplemented with EGM-2MV SingleQuots.
(§3) In 96-well plates, 3 × 10^3 (HeLa, A549, HMEC-1, HEK-293) or 5 × 10^3 (HT-29, MCF-7) cells per well were incubated with serial dilutions of the tested compounds in a total volume of 100 μL of their respective growth media. The 3-(4,5-dimethylthiazol-2-yl)-2,5-diphenyltetrazolium bromide (MTT; Sigma Chemical Co.) dye reduction assay in 96-well microplates was used. After 2 days of incubation (37 °C, 5% CO2 in a humid atmosphere), 10 μL of MTT (5 mg/mL in phosphate-buffered saline, PBS) was added to each well, and the plate was incubated for a further 3 h (37 °C). After that, the supernatant was discarded and replaced by 100 µL of DMSO to dissolve formazan crystals. The absorbance was then read at 540 nm by spectrophotometry. For all concentrations of compound, cell viability was expressed as the percentage of the ratio between the mean absorbance of treated cells and the mean absorbance of untreated cells. Three independent experiments were performed, and the IC50 values (i.e., concentration half inhibiting cell proliferation) were graphically determined using GraphPad Prism 4 software.

[2] = tested on: HeLa (epithelioid cervix carcinoma); assay: Cell proliferation assay (MTT); format: cell-based; details: Homo sapiens, 48 h, 2 days incubation, average ± SD of three experiments
From the text: as §1, §2, §3

[3] = tested on: A549 (pulmonary adenocarcinoma); assay: Cell proliferation assay (MTT); format: cell-based; details: Homo sapiens, A549, 48 h, 2 days incubation, average ± SD of three experiments
From the text: as §1, §2, §3

[4] = tested on: HEK-293 (human embryonic kidney cells); assay: Cell proliferation assay (MTT); format: cell-based; details: HEK293, 48 h, 2 days incubation, average ± SD of three experiments
From the text: as §1, §2, §3

[5] = tested on: HT-29 (colon adenocarcinoma); assay: Cell proliferation assay (MTT); format: cell-based; details: Homo sapiens, HT-29, 48 h, 2 days incubation, average ± SD of three experiments
From the text: as §1, §2, §3

[6] = tested on: MCF-7 (breast adenocarcinoma); assay: Cell proliferation assay (MTT); format: cell-based; details: Homo sapiens, MCF7, 48 h, 2 days incubation, average ± SD of three experiments
From the text: as §1, §2, §3

VEGFR-2 [7] = target: T1, VEGFR-2 (Homo sapiens, UniProt P35968); assay: VEGFR-2 quantification by flow cytometry in HMEC-1; format: cell-based; set-up: Both membrane and total VEGFR-2 were relatively determined using dimethyl sulfoxide (DMSO) treated cells as a negative control; endogenous in cells; host or cells: HMEC-1 (human microvascular endothelial cells); details: 10 µM, 24 h, relative to DMSO control
Description: (§7) We performed the study on both a HT-29 cancer cell line and a human microvessel endothelial cell line (HMEC-1). […] The effect of these selected derivatives on VEGFR-2, on HT-29 tumor cell line and on human microvessel endothelial cells (HMEC) was determined by flow cytometry technique. […] For these assays, cells were incubated for 24 h in the presence of the corresponding compounds at 10 µM concentration.

c-Myc [8] = assay: c-Myc quantification by flow cytometry in A-549; format: cell-based, human; details: A-549, 10 μM, 24 h, referred to control (DMSO)
Description: (§4) We evaluated the effect of the selected compounds on PD-L1 and on c-Myc proteins by flow cytometry after 24 h treatment at 10 μM concentration of compounds. Both, PD-L1 and c-Myc were relatively determined using DMSO treated cells as a negative control and BMS-8 as a positive one.
(§5) For the detection of total PD-L1 and c-Myc, cancer cells were seeded (3 × 10^5 cells/well) in 6-well plates and were incubated with the corresponding compounds for 24 h. Then they were collected, fixed, treated with 0.5% Triton^TM X-100 and stained with Alexa Fluor® 647 Rabbit monoclonal Anti-PD-L1 (ab215251) and FITC Rabbit monoclonal anti-c-Myc (ab223913).
(§6) We also checked results performing ELISA tests. For ELISA tests, lysates were collected, protein quantification was carried out by Bradford test and, then, PD-L1 and c-Myc were quantified using Human PD-L1 ELISA Kit 28-8 (ab214565) and c-Myc (Total) Human ELISA Kit (KHO2041), respectively, according to the manufacturer’s instructions.

PD-L1 [9] = target: T2, PD-L1 (Homo sapiens, UniProt Q9NZQ7); assay: PD-L1 quantification by flow cytometry in A-549; format: cell-based; set-up: endogenous in cells; host or cells: A-549 cancer cells; details: A-549, 10 μM, 24 h, referred to control (DMSO)
Description: as §4, §5, §6

c-Myc [10] = assay: c-Myc quantification by flow cytometry in HT-29; format: cell-based, human; details: HT-29, 10 μM, 24 h, referred to control (DMSO)
Description: as §4, §5, §6

VEGFR-2 [11] = target: T1, VEGFR-2; assay: VEGFR-2 quantification by flow cytometry in HT-29; format: cell-based; set-up: Both membrane and total VEGFR-2 were relatively determined using dimethyl sulfoxide (DMSO) treated cells as a negative control; endogenous in cells; host or cells: HT-29 (colon adenocarcinoma) and HMEC-1 (human microvascular endothelial cells); details: HT-29, 10 µM, 24 h, relative to DMSO control
Description: as §7

PD-L1 [12] = target: T2, PD-L1; assay: PD-L1 quantification by flow cytometry in HT-29; format: cell-based; details: HT-29, 10 μM, 24 h, referred to control (DMSO)
Description: as §4, §5, §6

T2 sequence (Q9NZQ7 19-290): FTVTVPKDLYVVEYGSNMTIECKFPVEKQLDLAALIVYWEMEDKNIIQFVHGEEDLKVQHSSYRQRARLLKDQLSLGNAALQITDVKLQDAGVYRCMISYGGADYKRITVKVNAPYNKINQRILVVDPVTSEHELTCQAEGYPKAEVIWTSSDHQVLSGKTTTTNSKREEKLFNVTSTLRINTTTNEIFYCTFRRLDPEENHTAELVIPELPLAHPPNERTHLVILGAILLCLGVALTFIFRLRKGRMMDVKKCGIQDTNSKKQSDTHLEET
T1 sequence (P35968 20-1356): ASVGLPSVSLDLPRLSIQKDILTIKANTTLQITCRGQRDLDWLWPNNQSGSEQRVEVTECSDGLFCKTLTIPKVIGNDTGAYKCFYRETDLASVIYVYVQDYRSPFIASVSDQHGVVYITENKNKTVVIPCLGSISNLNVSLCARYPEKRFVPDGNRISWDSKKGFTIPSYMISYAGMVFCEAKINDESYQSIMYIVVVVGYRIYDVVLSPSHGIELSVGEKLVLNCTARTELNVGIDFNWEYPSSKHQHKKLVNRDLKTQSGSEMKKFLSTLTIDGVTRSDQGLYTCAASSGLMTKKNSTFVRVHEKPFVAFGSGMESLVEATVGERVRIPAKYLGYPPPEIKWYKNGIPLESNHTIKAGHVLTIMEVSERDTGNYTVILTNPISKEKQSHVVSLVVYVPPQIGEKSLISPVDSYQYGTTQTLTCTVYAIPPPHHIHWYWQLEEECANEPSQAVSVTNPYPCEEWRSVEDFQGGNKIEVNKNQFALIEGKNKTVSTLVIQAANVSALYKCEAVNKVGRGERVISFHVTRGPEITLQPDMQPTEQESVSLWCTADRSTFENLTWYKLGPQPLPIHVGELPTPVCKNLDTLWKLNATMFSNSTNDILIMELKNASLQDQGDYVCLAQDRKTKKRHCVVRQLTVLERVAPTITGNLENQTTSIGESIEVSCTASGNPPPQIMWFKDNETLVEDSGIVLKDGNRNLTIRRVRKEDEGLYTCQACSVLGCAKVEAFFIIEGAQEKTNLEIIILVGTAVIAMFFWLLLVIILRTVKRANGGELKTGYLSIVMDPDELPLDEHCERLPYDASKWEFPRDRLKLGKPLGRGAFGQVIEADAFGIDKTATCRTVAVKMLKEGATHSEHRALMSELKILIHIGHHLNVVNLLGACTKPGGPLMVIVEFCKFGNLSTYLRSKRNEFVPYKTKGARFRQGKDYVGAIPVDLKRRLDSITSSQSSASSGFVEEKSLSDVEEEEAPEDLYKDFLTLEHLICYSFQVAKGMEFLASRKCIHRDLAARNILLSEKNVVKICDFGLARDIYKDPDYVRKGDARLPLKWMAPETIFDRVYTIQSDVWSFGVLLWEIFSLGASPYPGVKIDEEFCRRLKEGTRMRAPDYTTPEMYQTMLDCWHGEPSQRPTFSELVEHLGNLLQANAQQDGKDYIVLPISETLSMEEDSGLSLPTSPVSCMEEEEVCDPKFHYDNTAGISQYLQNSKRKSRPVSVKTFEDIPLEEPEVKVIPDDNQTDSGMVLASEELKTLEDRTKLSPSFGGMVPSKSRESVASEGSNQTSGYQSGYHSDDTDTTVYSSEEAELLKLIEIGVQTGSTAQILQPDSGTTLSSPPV

SMILES | IC50 [1] [µM] | IC50 [2] [µM] | IC50 [3] [µM] | IC50 [4] [µM] | IC50 [5] [µM] | IC50 [6] [µM] | Membrane VEGFR-2 (%) (VEGFR-2 [7]) | Total VEGFR-2 (%) (VEGFR-2 [7]) | c-Myc (%) relative expression (c-Myc [8]) [%] | PD-L1 (%) relative expression (PD-L1 [9]) [%] | c-Myc (%) relative expression (c-Myc [10]) [%] | Membrane VEGFR-2 (%) (VEGFR-2 [11]) | Total VEGFR-2 (%) (VEGFR-2 [11]) | PD-L1 (%) relative expression (PD-L1 [12]) [%]
COc1ccc(/C=C\c2cccc(NC(=O)Nc3ccccc3)c2)cc1 [Compound 13] | 40 ± 5 | 32 ± 8 | 34 ± 2 | 16 ± 3 | 24 ± 5 | 30 ± 7 |  |  |  |  |  |  |  | 
COc1ccc(/C=C\c2cccc(NC(=O)Nc3ccccc3Br)c2)cc1 [Compound 14] | 14 ± 2 | 26 ± 3 | 32 ± 14 | 25 ± 3 | 17 ± 2 | 25 ± 10 |  |  |  |  |  |  |  | 
COc1ccc(/C=C\c2cccc(NC(=O)Nc3ccccc3OC)c2)cc1 [Compound 17] | 10 ± 1 | 15 ± 2 | 18 ± 1 | 27 ± 5 | 15 ± 1 | 15 ± 1 | 99 ± 7 | 97 ± 9 | 45± 9 | 79 ± 9 | 58 ± 13 | 47 ± 16 | 98 ± 12 | 60 ± 12
COc1ccc(/C=C\c2cccc(NC(=O)Nc3cccc(OC)c3)c2)cc1 [Compound 18] | 4.3 ± 0.3 | 24 ± 5 | 23 ± 8 | 16 ± 3 | 17 ± 4 | 19 ± 2 |  |  |  |  |  |  |  | 
COc1ccc(/C=C\c2cccc(NC(=O)Nc3ccc(OC)cc3)c2)cc1 [Compound 19] | 11 ± 1 | 5 ± 2 | 12 ± 2 | 10 ± 1 | 14 ± 3 | 8 ± 3 | 98 ± 8 | 99 ± 16 | 79 ± 10 | 98 ± 10 | 47 ± 8 | 88 ± 14 | 97 ± 7 | 36 ± 9
COc1ccc(/C=C/c2cccc(NC(=O)Nc3ccccc3)c2)cc1 [Compound 20] | 4 ± 1 | 42 ± 8 | 1.6 ± 0.3 | 15 ± 2 | 2.5 ± 0.8 | 2.3 ± 0.9 |  |  |  |  |  |  |  | 
COc1ccc(/C=C/c2cccc(NC(=O)Nc3ccccc3Br)c2)cc1 [Compound 21] | 1.9 ± 0.4 | 1.7 ± 0.4 | 3 ± 1 | 2 ± 0.2 | 1.6 ± 0.2 | 1.6 ± 0.3 |  |  |  |  |  |  |  | 
COc1ccc(/C=C/c2cccc(NC(=O)Nc3cccc(Br)c3)c2)cc1 [Compound 22] | 1.1 ± 0.2 | 1.5 ± 0.3 | 4 ± 3 | 0.7 ± 0.3 | 0.5 ± 0.2 | 0.6 ± 0.3 |  |  |  |  |  |  |  | 
COc1ccc(/C=C/c2cccc(NC(=O)Nc3ccccc3OC)c2)cc1 [Compound 24] | 7.2 ± 0.6 | 9 ± 4 | 11 ± 5 | 3.5 ± 0.8 | 11 ± 4 | 3.6 ± 0.6 |  |  |  |  |  |  |  | 
COc1ccc(/C=C/c2cccc(NC(=O)Nc3cccc(OC)c3)c2)cc1 [Compound 25] | 4.3 ± 0.4 | 7 ± 0.5 | 2.2 ± 0.7 | 4 ± 2 | 1.3 ± 0.5 | 1.1 ± 0.2 | 59 ± 8 | 96 ± 9 | 68 ± 9 | 59 ± 8 | 74 ± 11 | 99 ± 11 | 94 ± 7 | 69 ± 11
COc1ccc(CCc2cccc(NC(=O)Nc3ccccc3)c2)cc1 [Compound 27] | 9 ± 4 | 10 ± 2 | 12 ± 5 | 12.5 ± 0.2 | 9.6 ± 0.6 | 12.8 ± 0.9 |  |  |  |  |  |  |  | 
COc1ccc(CCc2cccc(NC(=O)Nc3ccccc3Br)c2)cc1 [Compound 28] | 5 ± 3 | 4 ± 3 | 7 ± 4 | 1.7 ± 0.2 | 7.9 ± 0.5 | 5 ± 4 |  |  |  |  |  |  |  | 
COc1ccc(CCc2cccc(NC(=O)Nc3cccc(Br)c3)c2)cc1 [Compound 29] | 3.8 ± 0.3 | 10.7 ± 0.5 | 13 ± 3 | 7.2 ± 0.4 | 11 ± 2 | 10 ± 4 |  |  |  |  |  |  |  | 
COc1ccc(CCc2cccc(NC(=O)Nc3ccc(Br)cc3)c2)cc1 [Compound 30] | 1.3 ± 0.1 | 3.7 ± 0.3 | 11 ± 5 | 1.3 ± 0.5 | 4.9 ± 0.8 | 4 ± 2 |  |  |  |  |  |  |  | 
COc1ccc(CCc2cccc(NC(=O)Nc3ccccc3OC)c2)cc1 [Compound 31] | > 100 | 24 ± 2 | 24 ± 5 | 13.8 ± 0.8 | 57 ± 6 | 10 ± 5 |  |  |  |  |  |  |  | 
COc1ccc(CCc2cccc(NC(=O)Nc3cccc(OC)c3)c2)cc1 [Compound 32] | 7.1 ± 0.8 | 27 ± 1 | 18 ± 3 | 9.7 ± 0.8 | 22 ± 2 | 25 ± 4 | 69 ± 8 | 98 ± 13 | 77 ± 15 | 59 ± 9 | 69 ± 7 | 76 ± 5 | 93 ± 10 | 55 ± 11
